Assay results as given in PubChem BioAssay AID2368 (The Scripps Research Institute Molecular Screening Center, 2010).

Molecular target: Protein phosphatase methylesterase 1 (Homo sapiens) (UniProt Q9Y570)
Test: PME-1 inhibitors, ABPP after gel filtration, late-stage follow-up, gel-based ABPP (AID 2368)
Conditions: PME-1 labeling, hits give high values, concentration not given here

Sequence of Protein phosphatase methylesterase 1 (Homo sapiens) (Q9Y570 whole entry, looked up): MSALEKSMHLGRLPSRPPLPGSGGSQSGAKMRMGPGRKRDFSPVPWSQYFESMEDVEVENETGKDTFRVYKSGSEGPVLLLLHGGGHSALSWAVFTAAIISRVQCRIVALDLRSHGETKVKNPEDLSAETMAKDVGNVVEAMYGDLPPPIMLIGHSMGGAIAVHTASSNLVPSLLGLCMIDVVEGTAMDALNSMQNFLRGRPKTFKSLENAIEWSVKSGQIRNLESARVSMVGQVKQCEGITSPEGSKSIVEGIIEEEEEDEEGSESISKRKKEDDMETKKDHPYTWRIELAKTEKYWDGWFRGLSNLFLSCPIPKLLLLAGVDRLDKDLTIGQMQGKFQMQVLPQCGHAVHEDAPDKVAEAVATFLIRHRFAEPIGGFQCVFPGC

inhibition | Compound
> 50% | N#C/C(=C\c1cccn1S(=O)(=O)c1cccc([N+](=O)[O-])c1)S(=O)(=O)c1ccc(F)cc1
> 50% | N#C/C(=C\c1cccn1S(=O)(=O)c1cccc(C#N)c1)S(=O)(=O)c1ccc(F)cc1
